Results on nine compounds are retold here after ChEMBL document CHEMBL4130362, “Structure-based design, synthesis, and evaluation of 4,5,6,7-tetrahydro-1H-pyrazolo[4,3-c]pyridine derivatives as novel c-Met inhibitors” (Eur J Med Chem, 2017).

In series [1] the test system is PC-3. As to the kind of experiment: Cytotoxicity against human PC3 cells assessed as decrease in cell viability after 72 hrs by Cell Titer-Glo assay. It counts as functional.
The test system of series [2] is MKN-45. As to the kind of experiment: Cytotoxicity against human MKN45 cells assessed as decrease in cell viability after 72 hrs by Cell Titer-Glo assay. It counts as functional. A general note: In ATP-based viability assays light output follows the ATP content of the culture.
Series [3] has as its system EBC-1. As to the kind of experiment: Cytotoxicity against human EBC1 cells assessed as decrease in cell viability after 72 hrs by Cell Titer-Glo assay. The series is classed as functional.
Series [4] relates to HFL1. Kind of series: Cytotoxicity against human HFL1 cells assessed as decrease in cell viability at 50 uM after 72 hrs by Cell Titer-Glo assay. It counts as cell-based. As to conditions: hfl1, 72 h.
Series [5] deals with T1, Hepatocyte growth factor receptor (Homo sapiens, UniProt P08581). Kind of series: Inhibition of human GST-tagged c-MET preincubated for 20 mins followed by [33P]-ATP addition measured after 2 hrs by Hot-SpotSM kinase assay.
T1 sequence (P08581 whole entry): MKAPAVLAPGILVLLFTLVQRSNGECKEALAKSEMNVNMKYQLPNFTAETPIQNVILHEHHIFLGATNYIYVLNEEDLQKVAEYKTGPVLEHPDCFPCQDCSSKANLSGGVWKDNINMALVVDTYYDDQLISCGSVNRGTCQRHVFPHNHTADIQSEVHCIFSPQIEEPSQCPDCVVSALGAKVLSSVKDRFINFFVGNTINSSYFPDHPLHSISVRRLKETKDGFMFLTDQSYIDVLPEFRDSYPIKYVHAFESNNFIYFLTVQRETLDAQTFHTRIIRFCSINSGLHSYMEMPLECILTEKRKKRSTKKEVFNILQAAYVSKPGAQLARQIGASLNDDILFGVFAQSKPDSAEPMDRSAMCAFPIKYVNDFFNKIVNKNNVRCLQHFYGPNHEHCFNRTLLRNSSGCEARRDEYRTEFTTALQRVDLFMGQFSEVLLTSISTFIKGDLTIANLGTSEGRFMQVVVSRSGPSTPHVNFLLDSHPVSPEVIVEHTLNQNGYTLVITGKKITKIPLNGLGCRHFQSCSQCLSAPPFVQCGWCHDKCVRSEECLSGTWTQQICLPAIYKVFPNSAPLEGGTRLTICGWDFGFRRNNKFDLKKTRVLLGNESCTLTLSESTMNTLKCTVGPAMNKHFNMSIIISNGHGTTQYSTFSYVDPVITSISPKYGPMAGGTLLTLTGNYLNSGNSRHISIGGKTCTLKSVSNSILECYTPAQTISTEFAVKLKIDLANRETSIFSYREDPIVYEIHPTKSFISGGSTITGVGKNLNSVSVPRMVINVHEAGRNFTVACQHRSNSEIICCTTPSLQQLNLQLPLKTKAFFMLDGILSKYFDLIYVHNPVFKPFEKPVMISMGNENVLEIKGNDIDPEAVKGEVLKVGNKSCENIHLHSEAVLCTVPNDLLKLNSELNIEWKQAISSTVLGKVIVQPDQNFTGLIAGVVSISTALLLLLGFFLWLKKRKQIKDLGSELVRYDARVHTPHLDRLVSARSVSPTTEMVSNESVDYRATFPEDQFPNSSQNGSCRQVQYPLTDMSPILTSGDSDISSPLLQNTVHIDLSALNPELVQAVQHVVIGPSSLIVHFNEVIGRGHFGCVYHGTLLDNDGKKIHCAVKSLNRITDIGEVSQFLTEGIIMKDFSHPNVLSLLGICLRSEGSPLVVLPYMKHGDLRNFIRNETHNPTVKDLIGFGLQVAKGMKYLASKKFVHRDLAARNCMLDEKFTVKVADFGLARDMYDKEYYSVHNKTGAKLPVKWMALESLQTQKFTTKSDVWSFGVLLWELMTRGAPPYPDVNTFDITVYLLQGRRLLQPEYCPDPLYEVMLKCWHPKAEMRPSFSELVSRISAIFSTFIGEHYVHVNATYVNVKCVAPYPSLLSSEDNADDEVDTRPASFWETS
The test system of series [6] is EBC-1. As to the kind of experiment: Cytotoxicity against human EBC1 cells assessed as decrease in cell viability at 25 uM after 72 hrs by Cell Titer-Glo assay relative to control. The series is classed as functional.
In series [7] the target is ALK tyrosine kinase receptor (Homo sapiens) (UniProt Q9UM73). Kind of series: Inhibition of human GST-tagged ALK at 3 uM preincubated for 20 mins followed by [33P]-ATP addition measured after 2 hrs by Hot-SpotSM kinase assay.
Series [8] has as its target Epidermal growth factor receptor (Homo sapiens) (UniProt P00533). Kind of series: Inhibition of human GST-tagged EGFR at 3 uM preincubated for 20 mins followed by [33P]-ATP addition measured after 2 hrs by Hot-SpotSM kinase assay.
Series [9] has as its target Macrophage-stimulating protein receptor (Homo sapiens) (UniProt Q04912). Kind of series: Inhibition of human GST-tagged RON at 3 uM preincubated for 20 mins followed by [33P]-ATP addition measured after 2 hrs by Hot-SpotSM kinase assay.
The target in series [10] is T1, Hepatocyte growth factor receptor. Kind of series: Inhibition of HGF-induced c-MET phosphorylation at Tyr1234/1235 in human MKN45 cells after 1 hr by Western blot analysis. It counts as cell-based. (In general: Immunoblotting shows a protein as a band on a membrane.)
The test system of series [11] is PC-3. As to the kind of experiment: Cytotoxicity against human PC3 cells assessed as decrease in cell viability at 25 uM after 72 hrs by Cell Titer-Glo assay relative to control. It counts as functional.
For series [12], the target named is T2, Receptor-type tyrosine-protein kinase FLT3 (Homo sapiens, UniProt P36888).
T2 sequence (P36888 whole entry): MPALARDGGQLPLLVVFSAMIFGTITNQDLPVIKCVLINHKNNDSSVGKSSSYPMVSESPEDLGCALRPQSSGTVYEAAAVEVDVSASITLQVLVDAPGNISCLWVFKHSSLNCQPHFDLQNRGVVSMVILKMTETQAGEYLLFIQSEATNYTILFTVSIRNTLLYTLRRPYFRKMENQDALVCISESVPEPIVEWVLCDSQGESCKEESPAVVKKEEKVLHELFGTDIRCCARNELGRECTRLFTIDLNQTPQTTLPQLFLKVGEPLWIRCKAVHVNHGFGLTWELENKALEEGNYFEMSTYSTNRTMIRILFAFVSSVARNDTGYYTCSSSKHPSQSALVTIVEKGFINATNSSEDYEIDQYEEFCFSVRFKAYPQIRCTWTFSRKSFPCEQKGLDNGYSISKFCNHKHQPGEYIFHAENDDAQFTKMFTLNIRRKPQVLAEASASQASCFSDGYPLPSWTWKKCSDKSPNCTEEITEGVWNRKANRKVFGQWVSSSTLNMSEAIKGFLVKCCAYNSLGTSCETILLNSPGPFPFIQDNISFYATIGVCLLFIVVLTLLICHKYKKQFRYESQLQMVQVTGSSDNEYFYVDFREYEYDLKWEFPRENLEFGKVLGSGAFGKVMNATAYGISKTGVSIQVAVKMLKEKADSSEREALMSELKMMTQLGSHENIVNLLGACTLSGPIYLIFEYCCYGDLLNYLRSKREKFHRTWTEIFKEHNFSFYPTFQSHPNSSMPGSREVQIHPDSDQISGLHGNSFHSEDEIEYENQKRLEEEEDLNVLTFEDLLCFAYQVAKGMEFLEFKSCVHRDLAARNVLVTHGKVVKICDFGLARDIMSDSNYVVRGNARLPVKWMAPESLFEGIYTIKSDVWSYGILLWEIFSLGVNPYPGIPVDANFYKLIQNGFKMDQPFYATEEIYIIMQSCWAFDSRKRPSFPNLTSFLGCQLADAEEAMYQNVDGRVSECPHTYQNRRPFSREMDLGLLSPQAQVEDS
Kind of series: Inhibition of human GST-tagged FLT3 preincubated for 20 mins followed by [33P]-ATP addition measured after 2 hrs by Hot-SpotSM kinase assay.

In series [13] the target is Proto-oncogene tyrosine-protein kinase receptor Ret (Homo sapiens) (UniProt P07949). As to the kind of experiment: Inhibition of human GST-tagged RET at 3 uM preincubated for 20 mins followed by [33P]-ATP addition measured after 2 hrs by Hot-SpotSM kinase assay.
Sequence of Proto-oncogene tyrosine-protein kinase receptor Ret (Homo sapiens) (P07949 whole entry): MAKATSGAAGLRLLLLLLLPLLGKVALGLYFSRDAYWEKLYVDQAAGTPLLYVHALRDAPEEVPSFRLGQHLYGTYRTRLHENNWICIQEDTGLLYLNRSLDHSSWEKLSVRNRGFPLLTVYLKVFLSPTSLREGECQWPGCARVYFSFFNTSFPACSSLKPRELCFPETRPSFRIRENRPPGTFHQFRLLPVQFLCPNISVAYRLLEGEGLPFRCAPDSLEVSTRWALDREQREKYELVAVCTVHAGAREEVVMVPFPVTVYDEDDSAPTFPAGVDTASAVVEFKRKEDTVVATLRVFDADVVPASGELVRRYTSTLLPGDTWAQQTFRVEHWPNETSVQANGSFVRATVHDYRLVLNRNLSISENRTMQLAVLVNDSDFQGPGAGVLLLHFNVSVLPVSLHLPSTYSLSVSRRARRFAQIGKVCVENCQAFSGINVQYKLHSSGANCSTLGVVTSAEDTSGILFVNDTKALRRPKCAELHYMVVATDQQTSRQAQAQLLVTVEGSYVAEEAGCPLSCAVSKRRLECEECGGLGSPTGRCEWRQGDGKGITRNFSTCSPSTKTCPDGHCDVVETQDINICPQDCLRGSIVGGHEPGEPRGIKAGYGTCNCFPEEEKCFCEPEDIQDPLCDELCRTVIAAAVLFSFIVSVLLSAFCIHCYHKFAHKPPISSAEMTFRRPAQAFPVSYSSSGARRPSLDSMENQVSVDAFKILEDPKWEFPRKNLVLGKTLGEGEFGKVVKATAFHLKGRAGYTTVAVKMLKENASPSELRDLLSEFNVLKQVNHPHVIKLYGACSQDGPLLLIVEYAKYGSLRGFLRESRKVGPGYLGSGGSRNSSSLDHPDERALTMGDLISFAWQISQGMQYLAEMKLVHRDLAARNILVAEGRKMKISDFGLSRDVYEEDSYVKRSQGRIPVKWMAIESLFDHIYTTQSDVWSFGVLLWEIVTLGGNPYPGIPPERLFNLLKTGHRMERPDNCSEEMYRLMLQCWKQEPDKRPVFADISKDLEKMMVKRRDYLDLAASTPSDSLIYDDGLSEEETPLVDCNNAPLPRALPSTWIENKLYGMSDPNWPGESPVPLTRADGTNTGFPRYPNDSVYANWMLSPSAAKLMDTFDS
Series [14] has as its target Vascular endothelial growth factor receptor 2 (Homo sapiens) (UniProt P35968). As to the kind of experiment: Inhibition of human GST-tagged VEGFR2 at 3 uM preincubated for 20 mins followed by [33P]-ATP addition measured after 2 hrs by Hot-SpotSM kinase assay.
In series [15] the test system is Hepatocyte growth factor receptor (Homo sapiens), P08581 [Y1230H]. As to the kind of experiment: Inhibition of human GST-tagged c-MET Y1230H mutant at 3 uM preincubated for 20 mins followed by [33P]-ATP addition measured after 2 hrs by Hot-SpotSM kinase assay.
Series [16] has as its target Platelet-derived growth factor receptor alpha (Homo sapiens) (UniProt P16234). Kind of series: Inhibition of human GST-tagged PDGFRalpha at 3 uM preincubated for 20 mins followed by [33P]-ATP addition measured after 2 hrs by Hot-SpotSM kinase assay.
In series [17] the target is T1, Hepatocyte growth factor receptor. As to the kind of experiment: Inhibition of human GST-tagged c-MET at 3 uM preincubated for 20 mins followed by [33P]-ATP addition measured after 2 hrs by Hot-SpotSM kinase assay.
The target in series [18] is Receptor-type tyrosine-protein kinase FLT3 (Homo sapiens) (UniProt P36888). As to the kind of experiment: Inhibition of human GST-tagged FLT3 at 3 uM preincubated for 20 mins followed by [33P]-ATP addition measured after 2 hrs by Hot-SpotSM kinase assay.
Series [19] relates to Hepatocyte growth factor receptor (Homo sapiens), P08581 [Y1230C]. Kind of series: Inhibition of human GST-tagged c-MET Y1230C mutant at 3 uM preincubated for 20 mins followed by [33P]-ATP addition measured after 2 hrs by Hot-SpotSM kinase assay.

pIC50: −log10 of the molar value. A value given as a limit tells only on which side of the number the result lay.

Sequence of Macrophage-stimulating protein receptor (Homo sapiens) (Q04912 25-304 limits assumed): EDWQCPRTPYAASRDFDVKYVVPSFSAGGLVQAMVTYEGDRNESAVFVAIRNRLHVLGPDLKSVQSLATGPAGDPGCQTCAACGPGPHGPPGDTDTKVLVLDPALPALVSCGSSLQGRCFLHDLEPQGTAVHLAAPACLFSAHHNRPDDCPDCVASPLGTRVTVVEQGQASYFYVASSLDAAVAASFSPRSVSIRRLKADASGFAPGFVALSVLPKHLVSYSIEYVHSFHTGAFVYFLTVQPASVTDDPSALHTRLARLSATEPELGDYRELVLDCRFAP
Sequence of Macrophage-stimulating protein receptor (Homo sapiens) (Q04912 310-1400 limits assumed): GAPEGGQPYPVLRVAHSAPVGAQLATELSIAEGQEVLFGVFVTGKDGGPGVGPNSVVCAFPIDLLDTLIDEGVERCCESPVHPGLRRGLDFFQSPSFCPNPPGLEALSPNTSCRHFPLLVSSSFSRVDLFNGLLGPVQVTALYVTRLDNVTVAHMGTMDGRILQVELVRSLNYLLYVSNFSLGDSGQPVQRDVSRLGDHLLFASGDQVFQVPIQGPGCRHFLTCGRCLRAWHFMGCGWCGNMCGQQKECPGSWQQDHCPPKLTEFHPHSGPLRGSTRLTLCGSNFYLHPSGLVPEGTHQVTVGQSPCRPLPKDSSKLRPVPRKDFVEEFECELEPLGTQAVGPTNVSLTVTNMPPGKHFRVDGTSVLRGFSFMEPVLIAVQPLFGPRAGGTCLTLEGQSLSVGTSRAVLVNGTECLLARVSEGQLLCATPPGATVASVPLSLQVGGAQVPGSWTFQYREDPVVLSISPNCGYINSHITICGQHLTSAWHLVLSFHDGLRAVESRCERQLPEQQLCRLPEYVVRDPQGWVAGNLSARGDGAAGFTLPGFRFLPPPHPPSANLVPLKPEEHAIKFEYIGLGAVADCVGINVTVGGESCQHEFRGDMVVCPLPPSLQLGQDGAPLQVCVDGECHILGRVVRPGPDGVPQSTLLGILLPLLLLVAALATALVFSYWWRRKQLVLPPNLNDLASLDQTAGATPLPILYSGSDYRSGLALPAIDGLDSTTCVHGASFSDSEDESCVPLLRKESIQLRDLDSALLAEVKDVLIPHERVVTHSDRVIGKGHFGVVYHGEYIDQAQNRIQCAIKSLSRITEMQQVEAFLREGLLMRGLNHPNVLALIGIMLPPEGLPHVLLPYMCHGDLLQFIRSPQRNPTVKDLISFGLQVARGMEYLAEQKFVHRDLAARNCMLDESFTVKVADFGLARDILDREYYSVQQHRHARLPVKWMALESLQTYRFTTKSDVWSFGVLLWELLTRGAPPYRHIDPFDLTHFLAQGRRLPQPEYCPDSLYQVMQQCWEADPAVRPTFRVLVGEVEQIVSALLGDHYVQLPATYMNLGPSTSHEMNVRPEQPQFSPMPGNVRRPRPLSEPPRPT
Sequence of Epidermal growth factor receptor (Homo sapiens) (P00533 whole entry): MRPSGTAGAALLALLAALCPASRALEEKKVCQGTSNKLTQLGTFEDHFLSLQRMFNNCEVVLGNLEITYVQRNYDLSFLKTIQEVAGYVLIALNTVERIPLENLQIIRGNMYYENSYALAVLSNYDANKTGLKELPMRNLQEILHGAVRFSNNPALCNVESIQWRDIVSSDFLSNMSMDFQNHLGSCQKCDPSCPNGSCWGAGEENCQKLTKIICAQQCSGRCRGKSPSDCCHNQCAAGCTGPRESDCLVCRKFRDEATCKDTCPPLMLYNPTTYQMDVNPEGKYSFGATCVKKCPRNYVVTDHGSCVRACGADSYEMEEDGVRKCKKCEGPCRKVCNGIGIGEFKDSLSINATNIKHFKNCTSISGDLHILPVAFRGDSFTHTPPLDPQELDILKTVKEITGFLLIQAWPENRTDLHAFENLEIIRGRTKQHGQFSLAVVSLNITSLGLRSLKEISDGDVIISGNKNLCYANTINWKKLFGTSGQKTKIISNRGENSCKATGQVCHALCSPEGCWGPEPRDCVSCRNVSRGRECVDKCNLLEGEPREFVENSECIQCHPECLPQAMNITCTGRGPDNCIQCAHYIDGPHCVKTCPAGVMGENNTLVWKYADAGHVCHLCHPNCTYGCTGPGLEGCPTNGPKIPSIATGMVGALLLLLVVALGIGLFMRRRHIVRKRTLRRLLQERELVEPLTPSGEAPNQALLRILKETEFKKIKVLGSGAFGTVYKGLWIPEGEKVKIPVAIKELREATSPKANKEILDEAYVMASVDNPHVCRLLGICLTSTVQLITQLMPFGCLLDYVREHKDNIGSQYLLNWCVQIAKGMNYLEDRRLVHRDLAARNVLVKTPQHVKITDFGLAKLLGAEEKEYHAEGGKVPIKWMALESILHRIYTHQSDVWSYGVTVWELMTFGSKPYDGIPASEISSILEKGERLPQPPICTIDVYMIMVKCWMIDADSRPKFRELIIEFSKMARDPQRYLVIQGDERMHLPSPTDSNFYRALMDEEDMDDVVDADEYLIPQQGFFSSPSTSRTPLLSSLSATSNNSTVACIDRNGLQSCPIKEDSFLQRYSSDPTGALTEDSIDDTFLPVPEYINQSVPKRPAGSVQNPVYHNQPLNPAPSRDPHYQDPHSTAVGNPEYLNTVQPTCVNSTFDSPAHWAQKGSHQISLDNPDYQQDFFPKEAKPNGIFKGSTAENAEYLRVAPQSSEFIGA

As for `C[C@@H](Oc1cc(-c2cnn(C3CCNCC3)c2)cnc1N)c1c(Cl)ccc(F)c1Cl` [CRIZOTINIB], the Activity is 2.244 µM in series [1], 0.022 µM in series [2], 0.013 µM in [3] and 39.4% in [4].

As to `CC(=O)N1CCC(Nc2ccc(-c3n[nH]c4c3CN(S(=O)(=O)c3cccc5ccccc35)CC4)cc2)CC1`, the negative-log IC50 (pIC50) (as a rule, −log10 of the IC50, conventionally taken in molar units) in [5] is less than 4.30.

Turning to `CC(=O)N1CCC(Nc2ccc(-c3n[nH]c4c3CN(S(=O)(=O)c3ccc(C)cc3)CC4)cc2)CC1`, the pIC50 in series [5] was less than 4.30.

For `CC(=O)N1CCC(Nc2ccc(-c3n[nH]c4c3CN(S(=O)(=O)c3cccc5cccnc35)CC4)cc2)CC1`, the pIC50 in series [5] is less than 4.30.

On to `CC(=O)N1CCC(Nc2ccc(-c3n[nH]c4c3CN(S(=O)(=O)c3cccs3)CC4)cc2)CC1`, for which the Activity in [1] is more than 25 µM; in series [6], 57.52%; in [2], more than 25 µM.

Consider `CC(=O)N1CCC(Nc2ccc(-c3n[nH]c4c3CN(S(=O)(=O)c3c(Cl)cccc3Cl)CC4)cc2)CC1`, for which the Activity in series [1] is more than 25 µM; in series [2] it was 12.02 µM; in series [3] it was 11.478 µM.

For `O=C(NCCO)c1ccc(-c2n[nH]c3c2CN(S(=O)(=O)c2c(Cl)cccc2Cl)CC3)cc1`, the Activity in series [1], in series [2] and in series [3] was more than 25 µM each time.

Take `CN1CCC(Nc2ccc(-c3n[nH]c4c3CN(S(=O)(=O)c3c(Cl)cccc3Cl)CC4)cc2)CC1`: the inhibition (as a rule, the drop in the measured response relative to a control, in per cent) in series [7] is 55.6%; in series [8] it was -5.68%; in series [9], 27.4%; in series [10] it was “Dose-dependent effect”; in series [13], 33.5%; in series [14], 26.9%. For the same compound, the inhibition in [15] came out at 7.16%; in series [16], 41.1%; in series [17], 17.6%; in series [18] it was 97.8%; in series [19] it was 14.9%. Besides, the Activity in [11] was 60.89%; in series [2], 1.187 µM; in series [3], 3.481 µM; in [4] it was 40.6%. The pIC50 was 6.91 in [12] and 7.17 in series [5].

Turning to `CN1CCN(C(=O)c2ccc(-c3n[nH]c4c3CN(S(=O)(=O)c3c(Cl)cccc3Cl)CC4)cc2)CC1`, the figures for the Activity in [2] and in series [3] were 12.057 µM and 8.278 µM, respectively.
